Reference: PubChem BioAssay (NCI)
Where “and” joins values, the source holds several entries; their conditions need not be identical. Identical values can stand only once.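 96-well plates; 48 h exposure; 5 concentrations. Endpoints by linear interpolation between flanking doses. Not reached: highest tested concentration assigned. Here, GI50 denotes the concentration required for 50% inhibition of growth. TGI marks complete inhibition of growth.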

How the values were obtained:
Assay in all cases: DTP human tumour cell line panel, 48 h
[1] = tested on: SF-539 CNS
[2] = tested on: NCI-H226 lung
[3] = tested on: KM12 colon
[4] = tested on: IGROV1 ovarian
[5] = tested on: M14 melanoma
[6] = tested on: MOLT-4 leukemia
[7] = tested on: PC-3 prostate
[8] = tested on: HT29 colon
[9] = tested on: NCI-H460 lung
[10] = tested on: K-562 leukemia

O=C1OCC(c2ccc(O)cc2)=C1c1cc(O)c(O)c(O)c1
GI50 [1]: > 100 µM
TGI [1]: > 100 µM
GI50 [2]: > 100 µM
TGI [2]: > 100 µM
GI50 [3]: 89.3 µM
TGI [3]: > 100 µM
GI50 [4]: > 100 µM
TGI [4]: > 100 µM
GI50 [5]: > 100 µM
TGI [5]: > 100 µM
GI50 [6]: > 100 µM
TGI [6]: > 100 µM
GI50 [7]: > 100 µM
TGI [7]: > 100 µM
GI50 [8]: > 100 µM
TGI [8]: > 100 µM
GI50 [9]: > 100 µM
TGI [9]: > 100 µM
GI50 [10]: 82.2 µM
TGI [10]: > 100 µM

COc1cccc(-n2ncc3c(N/N=C/c4ccc(C)cc4)ncnc32)c1
GI50 [1]: > 25 µM
TGI [1]: > 25 µM
GI50 [2]: > 25 µM
TGI [2]: > 25 µM
GI50 [3]: > 25 µM
TGI [3]: > 25 µM
GI50 [4]: > 25 µM
TGI [4]: > 25 µM
GI50 [5]: > 25 µM
TGI [5]: > 25 µM
GI50 [6]: > 25 µM
TGI [6]: > 25 µM
GI50 [7]: > 25 µM
TGI [7]: > 25 µM
GI50 [8]: 1.89 µM
TGI [8]: > 25 µM
GI50 [9]: > 25 µM
TGI [9]: > 25 µM
GI50 [10]: > 25 µM
TGI [10]: > 25 µM

O=P(O)(O)OCC1OC(n2cnc3c(NCc4ccco4)ncnc32)C(O)C1O (stereo unspecified)
GI50 [1]: 2.7 µM
TGI [1]: 12.5 µM
GI50 [2]: 7.13 µM
TGI [2]: > 56.5 µM
GI50 [3]: 4.44 µM
TGI [3]: > 42.6 µM
GI50 [4]: 1.39 µM
GI50 [5]: 3.55 µM
TGI [5]: > 41 µM
GI50 [6]: 0.339 µM
TGI [6]: 1.9 µM
GI50 [7]: 0.927 µM
TGI [7]: 12.3 µM
GI50 [8]: 2.98 µM
TGI [8]: > 100 µM
GI50 [9]: 3.04 µM
TGI [9]: 21.4 µM
GI50 [10]: 3.01 µM
TGI [10]: > 57.5 µM

COc1cc(OC)c(/C=C/C(=O)c2ccc(Nc3ncnc4ccccc34)cc2)c(OC)c1
GI50 [1]: 0.837 µM
TGI [1]: 2.31 µM
GI50 [2]: 1.03 µM
TGI [2]: 3 µM
GI50 [3]: 0.51 µM
TGI [3]: > 43.9 µM
GI50 [4]: 1.93 µM
TGI [4]: 20.3 µM
GI50 [5]: 0.575 µM
TGI [5]: 2.5 µM
GI50 [6]: 0.898 µM
TGI [6]: > 100 µM
GI50 [7]: 0.707 µM
TGI [7]: 8.33 µM
GI50 [8]: 0.364 µM
TGI [8]: 1.39 µM
GI50 [9]: 0.394 µM
TGI [9]: 2.01 µM

C=C1C(=O)O[C@H]2[C@H]1CC/C(Cn1cc(Cc3c[nH]c4ccccc34)nn1)=C\CC[C@@]1(C)O[C@@H]21
GI50 [1]: 1.76 µM
TGI [1]: 3.35 µM
GI50 [2]: 2.1 µM
TGI [2]: 4.75 µM
GI50 [3]: 2.34 µM
TGI [3]: 4.99 µM
GI50 [4]: 1.92 µM
TGI [4]: 3.84 µM
GI50 [5]: 1.31 µM
TGI [5]: 3.07 µM
GI50 [6]: 2.29 µM
TGI [6]: 6.04 µM
GI50 [7]: 1.88 µM
TGI [7]: 3.81 µM
GI50 [8]: 1.95 µM
TGI [8]: 3.72 µM
GI50 [9]: 3.51 µM
TGI [9]: 10.6 µM
GI50 [10]: 1.81 µM
TGI [10]: 6.14 µM

O=C(O)CNc1ccc(Cl)c(Cl)c1
TGI [1]: > 100 µM
TGI [2]: > 100 µM
TGI [3]: 55.1 µM
TGI [4]: 26.3 µM
TGI [5]: > 100 µM
TGI [6]: > 100 µM
TGI [7]: 76 µM
TGI [8]: > 100 µM
TGI [9]: 69.8 µM
TGI [10]: 78.4 µM

O=C1NCN(c2ccccc2)C12CCN(CCCC(c1ccc(F)cc1)c1ccc(F)cc1)CC2
GI50 [1]: 1.71 µM
TGI [1]: 3.13 µM
GI50 [2]: 7.36 µM
TGI [2]: 35.5 µM
GI50 [3]: 2.14 µM
TGI [3]: 4.38 µM
GI50 [4]: 2.36 µM
TGI [4]: 9.89 µM
GI50 [5]: 1.67 µM
TGI [5]: 3.18 µM
GI50 [6]: 2.31 µM
TGI [6]: 5.99 µM
GI50 [7]: 2.49 µM
TGI [7]: 10.7 µM
GI50 [8]: 1.51 µM
TGI [8]: 3.22 µM
GI50 [9]: 1.68 µM
TGI [9]: 3.08 µM
GI50 [10]: 1.71 µM
TGI [10]: 4.11 µM

CCCCCCCN(CCCCCCC)C(=N)c1ccnc2ccccc12
GI50 [1]: 1.9 µM
TGI [1]: 3.58 µM
GI50 [2]: 1.88 µM
TGI [2]: 3.78 µM
GI50 [3]: 1.82 µM
TGI [3]: 3.49 µM
GI50 [4]: 1.6 µM
TGI [4]: 3.37 µM
GI50 [5]: 1.33 µM
TGI [5]: 2.76 µM
GI50 [6]: 1.7 µM
TGI [6]: 4.4 µM
GI50 [7]: 1.39 µM
TGI [7]: 2.96 µM
GI50 [8]: 1.24 µM
TGI [8]: 2.87 µM
GI50 [9]: 1.69 µM
TGI [9]: 3.27 µM
GI50 [10]: 1.27 µM
TGI [10]: 3.48 µM

CC(=Nc1ccccc1)C1=C(O)C(Cc2cccc(F)c2)NC1=O (stereo unspecified)
GI50 [1]: 0.0374 µM
GI50 [2]: 5.25 µM
TGI [2]: > 100 µM
GI50 [3]: 0.0457 µM
TGI [3]: > 100 µM
GI50 [4]: 0.0854 µM
TGI [4]: > 100 µM
GI50 [5]: 0.0487 µM
TGI [5]: > 100 µM
GI50 [6]: 0.158 µM
TGI [6]: > 100 µM
GI50 [7]: 0.0399 µM
TGI [7]: > 100 µM
GI50 [8]: 0.0372 µM
TGI [8]: 13.4 µM
GI50 [9]: 0.0403 µM
TGI [9]: > 100 µM
GI50 [10]: 0.0412 µM
TGI [10]: > 100 µM

c1ccc2cc(Cn3cc[n+](Cc4ccc5ccccc5c4)c3)ccc2c1
GI50 [1]: 1.98 µM
TGI [1]: 9.27 µM
GI50 [2]: 1.72 µM
TGI [2]: 14.3 µM
GI50 [3]: 1.15 µM
TGI [3]: 2.62 µM
GI50 [4]: 0.659 µM
TGI [4]: 3.75 µM
GI50 [5]: 1.43 µM
TGI [5]: 8.34 µM
GI50 [6]: 1.24 µM
TGI [6]: 8.38 µM
GI50 [7]: 0.535 µM
TGI [7]: 5.6 µM
GI50 [8]: 0.555 µM
TGI [8]: 5.74 µM
GI50 [9]: 1.27 µM
TGI [9]: 10.4 µM
GI50 [10]: 1.02 µM
TGI [10]: 14.5 µM

COc1ccc(-c2nsc3c2NC(=O)CC3c2ccc3c(c2)OCCO3)cc1 (stereo unspecified)
GI50 [1]: 0.8 µM
TGI [1]: 6.71 µM
GI50 [2]: 5.19 µM
TGI [2]: > 26.6 µM
GI50 [3]: 0.521 µM
TGI [3]: > 100 µM
GI50 [4]: 1.6 µM
TGI [4]: > 100 µM
GI50 [5]: 0.397 µM
TGI [5]: > 100 µM
GI50 [6]: 0.622 µM
TGI [6]: > 100 µM
GI50 [7]: 0.528 µM
TGI [7]: > 100 µM
GI50 [8]: 0.419 µM
TGI [8]: > 55.5 µM
GI50 [9]: 0.396 µM
TGI [9]: > 46 µM
GI50 [10]: 0.367 µM
TGI [10]: > 100 µM

CN(C)c1ccc(C(=N)c2ccc(N(C)C)cc2)cc1
GI50 [1]: 2.88 µM and 3.5 µM
TGI [1]: 11.5 µM and 25.7 µM
GI50 [2]: 7.81 µM and 9.07 µM
TGI [2]: 51.6 µM and 47.2 µM
GI50 [3]: 1.58 µM and 1.65 µM
TGI [3]: 16.2 µM and 21.5 µM
GI50 [4]: 3.45 µM and 7.32 µM
TGI [4]: 31.7 µM and > 100 µM
GI50 [5]: 2.13 µM and 2.95 µM
TGI [5]: 10.8 µM and 16.8 µM
GI50 [6]: 3.66 µM
TGI [6]: 26 µM
GI50 [7]: 3.75 µM and 3.74 µM
TGI [7]: 36.2 µM and > 100 µM
GI50 [8]: 1.32 µM and 2.11 µM
TGI [8]: 11.6 µM and 16.4 µM
GI50 [9]: 3.01 µM and 3.54 µM
TGI [9]: 12.6 µM and 20 µM
GI50 [10]: 0.553 µM
TGI [10]: 64.9 µM

O=C1NC(=O)[C@@]2(CC[C@@H](O)C2)c2ccncc21
TGI [1]: > 100 µM
TGI [2]: > 100 µM
TGI [3]: > 100 µM
TGI [4]: > 100 µM
TGI [5]: > 100 µM
TGI [6]: > 100 µM
TGI [7]: > 100 µM
TGI [8]: > 100 µM
TGI [9]: > 100 µM
TGI [10]: > 100 µM
